The text below walks through data of patent publication US4772594A, “Prodrug compounds, process for the preparation thereof and sustained release preparation comprising the same” (Fujisawa Pharmaceutical Co., Ltd., priority 1986, dated 1988).

The T/C is the result in the treated group divided by that in the control group, in per cent. One may read the half-life as the time in which the quantity being followed falls by half.

Read-outs that look alike come from different tables or passages of the source.

Series [1] has as its system Mouse leukemia cell L 1210. In words: Anti tumor test 1: survival of mice implanted with L 1210 leukemia. In kind it is in vivo. The conditions noted are these: i.v. BHAC aqueous solution; for T/C: mean survival time vs control. An excerpt: The mixture of chloroform and methanol (8:2 V/V) containing egg yolk lecithin (245 μmole), egg yolk sphingomyelin (105 μmole) and Cytarabine prodrug (Example 8) (87.5 and 262.5 μmole respectively) was taken in a roundbottom flask. Liposome suspensions containing Cytarabine prodrug (Concentration: 10 and 20 μmole/ml respectively) were obtained in a similar manner to that of the above-mentioned method. Mouse leukemia cell L 1210 (10^5 cells) were implanted intraperitoneally into BDF female mice (7 weeks).
After 24 hours after inoculation, Cytarabine aqueous solution (dose: 1000 and 3000 μmole/kg respectively), above-mentioned liposome suspension containing Cytarabine prodrug (dose: 100 and 300 μmole/kg respectively)and aqueous solution of N^4 -behenoyl-1-β-arabinofuranosylcytosine (hereinafter referred to as BHAC) which is a known compound as Cytarabine prodrug and is shown by the following structure (dose: 100 and 300 μmole/kg respectively) were administered intravenously to the mouse at a volume of 0.2 ml or 0.3 ml (in case the administration at the dose of 300 μmole/kg of Cytarabine prodrug) per 20 g of mouse body weight. After the treatment, survival of the mice was recorded. [drawing 9]

A short description of series [2]: Bioavailability Test 3: blood concentration after i.v. emulsion or aqueous solution in mice. The conditions noted are these: mouse, iv, 0.8 umol/animal, read-out: Blood concentration of Mitomycin C Prodrug (Example 1). In kind it is in vivo, ICR female mice. How it is done: The liposome suspension containing Mitomycin C prodrug (Example 1), which was prepared in the above Bioavailability Test 1, was diluted with PBS at the concentration of Mitomycin C prodrug of 2.5 μmole/ml and was filtered through a polycarbonate membrane (0.1μ). 0.2 ml of PBS solution of Mitomycin C or the liposome suspension containing Mitomycin C prodrug was administered intravenously to ICR female mice (8 weeks, body weight: about 25 g, 3 per one group) respectively, and the blood samples were withdrawn by cardiac puncture under anesthesia. The blood concentrations of Mitomycin C and Mitomycin C prodrug were determined in accordance with the same procedures as described in Bioavailability Test 1.
Each chloroform solution of Mitomycin C prodrug (Example 1) (4 μmole), Panacete 800 (trademark, prepared by Nihon Yushi Co., Ltd.) (40 mg), egg yolk lecithin (14 mg) and HCO-60 (trademark, prepared by Nikko Chemicals Co., Ltd.) (8 mg) was combined in a round-bottom flask and evaporated to dryness. To this was added PBS (1 ml) and emulsified with a sonicator to give an emulsion containing Mitomycin C prodrug. Each chloroform solution of liitomycin C prodrug (Example 1) (4 μmole) and HCO-60 (24 mg) was combined in a roundbottom flask and evaporated to dryness. The residue was dispersed in 1 ml of PBS and agitated vigorously to yield a clear solution. 0.2 ml of each preparations thus obtained which contained the prodrug at 4 μmole/ml, was administered to mice and the blood concentrations of Mitomycin C and Mitomycin C prodrug were determined according to the same procedures as described in Bioavailability Test 2.

Series [3] can be described thus: Toxicity test: body weight change after i.v. administration to mice. In kind it is in vivo, ICR male mice. The conditions noted are these: mouse. As to the method: Each chloroform solution of egg yolk lecithin (126 μmole), egg yolk sphingomyelin (54 μmole) and Mitomycin C prodrug (Example 1) (3.75, 24 and 37.5 μmole respectively) was combined in a round-bottom flask and evaporated to dryness. Liposome suspensions containing Mitomycin C prodrug were obtained according to the same procedures as described above. The liposome suspensions were diluted with PBS to obtain the desired drug concentration (0.15, 0.96 and 1.50 mg/ml as Mitomycin C) and were filtered through polycarbonate membranes (0.1 μ). PBS solution of Mitomycin C (dose: 1.0 and 6.4 mg/kg/day respectively) or above-mentioned liposome suspension containing Mitomycin C prodrug (dose: 1.0, 6.4 and 10 mg/kg/day as Mitomycin C) were administered intravenously to ICR male mice (6 week) at Day 1, 3 and 5 and the body weight change was recorded from Day 1 to 15.

The nature of series [4]: Conversion Test 1: conversion half life of prodrug to parent compound in rat serum. In kind it is in vitro ADME. As to conditions: rat, serum; for half-life: Half life (t 1/2). As to the method: Chloroform solution containing egg yolk lecithin (84 μmole), egg yolk sphingomyelin (36 μmole) and Mitomycin C prodrug ( 6 μmole) obtained in the below-mentioned Example 1 or 2 was poured into a round-bottom flask and evaporated to dryness.
To this were added sodium cholate (258 mg) and pH 7.4 phosphate buffered saline (hereinafter referred to as PBS) (4.8 ml) and the mixture was agitated to give a clear purple solution.
Sodium cholate was removed from the solution by the Lipoprep dialyzer (detergent removal apparatus prepared by Diachema Co., Ltd.) to give a liposome suspension containing Mitomycin C prodrug.
Chloroform solution containing egg yolk lecithin (70 μmole), egg yolk sphingomyelin (30 μmole) and FR900482 substance prodrug (Example 6)(5 μmole) was poured into a round-bottom flask and a liposome suspension containing FR900482 substance prodrug was obtained in a similar manner to that of above-mentioned method.
Above-mentioned two liposome suspensions containing Mitomycin C prodrug were each diluted with PBS at 2.5 times.
The liposome suspension containing FR900482 substance prodrug was diluted with PBS to obtain the drug concentration of 0.5 μmole/ml and was filtered through millex-GV (trademark: prepared by Millipore Co., Ltd.) filter (0.22μ).
After the liposome suspension and ethanol solution of each prodrug (0.5 ml) were added to mouse, rat or human serum (4.5 ml, 37° C.), samples were taken periodically and the concentration of each prodrug was determined by high-performance liquid chromotography.
Conversion half lives (t 1/2) of each prodrug to each parent compound in various kinds of serum were calculated by the concentration of each prodrug remaining at each time.

Series [5] in a line: Bioavailability Test 2: blood concentration after i.v. administration to mice. It counts as in vivo, ICR female mice. As to conditions: iv, mouse, i.v. PBS solution of Mitomycin C. As to the method:
The blood concentrations of Mitomycin C and Mitomycin C prodrug were determined in accordance with the same procedures as described in Bioavailability Test 1.

Series [6] in a line: Bioavailability Test 1: blood concentration after i.v. administration to rats. Set-up: species or system SD male rats. As to conditions: rat, in vivo, iv. As to the method: Chloroform solution (14.3 ml) containing egg yolk lecithin (126 μmole), egg yolk sphingomyelin (54 μmole) and Mitomycin C prodrug (Example 1) (24 μmole) was poured into a round-bottom flask and evaporated at one hour. To this were added sodium cholate (194 mg) and PBS (6 ml) and agitated. A liposome suspension containing Mitomycin C prodrug was obtained according to a similar manner to that of above-mentioned method. The liposome suspension thus prepared was diluted with PBS to obtain the drug concentration of 3.0 μmole/ml and was filtered through a polycarbonate membrane (0.1 μ). 1.0 ml of PBS solution of Mitomycin C or the liposome suspension containing Mitomycin C prodrug prepared by the above-mentioned method was administered intravenously to SD male rats (7 weeks, body weight: about 300 g, 4 per one group) and blood samples were withdrawn at appropriate intervals from subclavian vein. The plasma samples were deproteinzed and the concentration of Mitomycin C was determined by high-performance liquid chromatography.
While Mitomycin C prodrug in the blood was determined by high-performance liquid chromatography after extraction with ethanol from the freeze-dried blood samples.

The mark [7] stands for this setting: i.v. aqueous solution (4 μmole/ml, 0.2 ml).
[8] abbreviates: i.v. emulsion (4 μmole/ml, 0.2 ml).

In series [1] (100 μmole/kg), `CCCCCCCCCCCCCCCCCCCCCC(=O)Nc1ccn([C@@H]2O[C@H](CO)[C@@H](O)[C@@H]2O)c(=O)n1` [BHAC, N^4-behenoyl-1-β-arabinofuranosylcytosine] came in with a Mean survival time of 11.0 ± 0.3 days and a T/C of 122%. In series [1] (300 μmole/kg), the Mean survival time came to 15.3 ± 0.5 days and the T/C turned out to be 170%.

As to `CO[C@@]12[C@H](COC(N)=O)C3=C(C(=O)C(C)=C(N)C3=O)N1C[C@H]1[C@@H]2N1C(=O)CNC(=O)O[C@H]1CC[C@@]2(C)C(=CC[C@H]3[C@@H]4CC[C@H]([C@H](C)CCCC(C)C)[C@@]4(C)CC[C@@H]32)C1` [Example 1, [1aS-(1aα, 8β, 8aα, 8bα)]-6-amino-8-carbamoyloxymethyl-N'-[N-(cholest-5-en-3β-oxycarbonyl)glycyl]-1,1a,2,8,8a,8b-hexahydro-8a-methoxy-5-methy-aziridino[2',3':3,4]pyrrolo [1,2-a]indole-4,7-dione], in series [2] (setting [7]), the concentration at 1 h amounted to 186 µM, the concentration at 4 h stood at 73.9 µM and the concentration at 7 h amounted to 22.2 µM. In addition, in series [2] (setting [8]), the concentration at 1 h was 251 µM, the concentration at 4 h was found to be 81.6 µM and the concentration at 7 h was 39 µM. The compound further came in with a Body weight in series [3] (i.v. liposome suspension, 1.0 mg/kg/day as Mitomycin C at Day 1, 3, 5, 1 day) of 32.78 g. In series [3] (i.v. liposome suspension, 6.4 mg/kg/day as Mitomycin C at Day 1, 3, 5, 1 day), this compound registered a Body weight of 33.86 g. The same compound displayed a Body weight in series [3] (i.v. liposome suspension, 10.0 mg/kg/day as Mitomycin C at Day 1, 3, 5, 1 day) of 35.14 g. Also, in series [4], the “Half life (t 1/2)” value came out at 10.0 h and the half-life was 5.7 h.

Take `CO[C@@]12[C@H](COC(N)=O)C3=C(C(=O)C(C)=C(N)C3=O)N1C[C@H]1[C@@H]2N1C(=O)CO[C@H]1CC[C@@]2(C)C(=CC[C@H]3[C@@H]4CC[C@H]([C@H](C)CCCC(C)C)[C@@]4(C)CC[C@@H]32)C1` [Example 2, [1aS-(1aα, 8β, 8aα,8bα)]-6-amino-8-carbamoyloxymethyl-N-(cholest-5-en-3β-oxyacetyl) 1,1a,2,8,8 a,8b-hexahydro-8a-methoxy-5-methyl-aziridino [2',3':3,4]pyrrolo[1,2-a]indole-4,7-dione]: in series [4], the “Half life (t 1/2)” value is 17.3 h and the half-life was 9.3 h.

On to `CO[C@@]12[C@H](COC(N)=O)C3=C(C(=O)C(C)=C(N)C3=O)N1C[C@@H]1N[C@@H]12` [Mitomycin C], for which the concentration at 5 min in series [5] (5 min) amounted to 9.15 µM; in series [6] it was 10.7 µM. The concentration at 0.25 h amounted to 2.76 µM in series [5] (15 min) and 5.54 µM in series [6]. Moreover, the concentration at 0.5 h in series [5] (30 min) was determined as 1.57 µM; in series [6], 3.32 µM. The concentration at 1 h was 0.11 µM in series [5] (1 hr) and 1.04 µM in series [6]. Also, the Body weight stood at 33.78 g in series [3] (i.v. PBS solution, 1.0 mg/kg/day at Day 1, 3, 5, 1 day); 33.86 g in series [3] (i.v. PBS solution, 1.0 mg/kg/day at Day 1, 3, 5, 5 days); 35.26 g in series [3] (i.v. PBS solution, 1.0 mg/kg/day at Day 1, 3, 5, 15 days); 35.54 g in series [3] (i.v. PBS solution, 6.4 mg/kg/day at Day 1, 3, 5, 1 day); 29.36 g in series [3] (i.v. PBS solution, 6.4 mg/kg/day at Day 1, 3, 5, 5 days). In series [3] (i.v. PBS solution, 6.4 mg/kg/day at Day 1, 3, 5, at 8 days), the “Death (in body weight column, 15 days)” value was “All died”. Moreover, the concentration at 2 h in series [6] is 0.11 µM.
